How the values were obtained:
rgRSV224 virus = assay: Antiviral activity: rgRSV224 (GFP) replication in HeLa cells; assay type: cell-based, respiratory syncytial virus (RSV); settings: human respiratory syncytial virus, HeLa, 72 h, read-out: RSV HELA EC50 (μM), rgRSV224 virus (MOI=1), HeLa cells, GFP expression three days post-virus exposure
in vitro = settings: human, TOX HELA CC50 (μM)
Description: Black 384-well clear-bottom microtiter plates (Corning, Amsterdam, The Netherlands) were filled via acoustic drop ejection using the echo liquid handler (Labcyte, Sunnyvale, Calif.). 200 nL of compound stock solutions (100% DMSO) were transferred to the assay plates. 9 serial 4-fold dilutions of compound were made, creating per quadrant the same compound concentration. The assay was initiated by adding 10 μL of culture medium to each well (RPMI medium without phenol red, 10% FBS-heat inactivated, 0.04% gentamycin (50 mg/mL). All addition steps are done by using a multidrop dispenser (Thermo Scientific, Erembodegem, Belgium). Next, rgRSV224 virus (MOI=1) diluted in culture medium was added to the plates. rgRSV224 virus is an engineered virus that includes an additional GFP gene (Hallak L K, Spillmann D, Collins P L, Peeples M E. Glycosaminoglycan sulfation requirements for respiratory syncytial virus infection; Journal of virology (2000), 74(22), 10508-13) and was in-licensed from the NIH (Bethesda, Md., USA). Finally, 20 μL of a HeLa cell suspension (3,000 cells/well) were plated. Medium, virus- and mock-infected controls were included in each test. The wells contain 0.05% DMSO per volume. Cells were incubated at 37° C. in a 5% CO2 atmosphere. Three days post-virus exposure, viral replication was quantified by measuring GFP expression in the cells by an in house developed MSM laser microscope (Tibotec, Beerse, Belgium). The EC50 was defined as the 50% inhibitory concentration for GFP expression. In parallel, compounds were incubated for three days in a set of white 384-well microtiter plates (Corning) and the cytotoxicity of compounds in HeLa cells was determined by measuring the ATP content of the cells using the ATPlite kit (Perkin Elmer, Zaventem, Belgium) according to the manufacturer's instructions. The CC50 was defined as the 50% concentration for cytotoxicity.

Row | SMILES | EC50 (rgRSV224 virus) [µM] | melting point [°C] | CC50 at 3 days (in vitro) [µM]
1 | CNC(=O)[C@H]1CCN(c2cc(F)c(-c3cc4nc(C(=O)N5CCc6ccccc6[C@H]5C)cc(C5CC5)n4n3)cn2)C1 [Compound 53, (3S)-1-(5-{7-Cyclopropyl-5-[(1R)-1-methyl-1,2,3,4-tetrahydroisoquinoline-2-carbonyl]-pyrazolo[1,5-a]pyrimidin-2-yl}-4-fluoropyridin-2-yl)-N-methylpyrrolidine-3-carboxamide] | 0.035 | 228.33 | > 100
2 | C[C@@H]1c2ccccc2CCN1C(=O)c1cc(C2CC2)n2nc(-c3ccc(N4CC[C@@H](C(N)=O)[C@@H]4C)cc3F)cc2n1 (single isomer, unassigned) [Compound 82, (2*S,3*R)-1-(4-{7-Cyclopropyl-5-[(1R)-1-methyl-1,2,3,4-tetrahydroisoquinoline-2-carbonyl]pyrazolo[1,5-a]pyrimidin-2-yl}-3-fluorophenyl)-2-methylpyrrolidine-3-carboxamide] | 0.033 | 294.89 | 33.1
3 | C[C@@H]1c2ccccc2CCN1C(=O)c1cc(C2CC2)n2nc(-c3ccc(N4CC(C(N)=O)C4)cc3F)cc2n1 [Compound 91, 1-(4-{7-Cyclopropyl-5-[(1R)-1-methyl-1,2,3,4-tetrahydroisoquinoline-2-carbonyl]pyrazolo[1,5-a]pyrimidin-2-yl}-3-fluorophenyl)azetidine-3-carboxamide] | 0.036 | 236.01 | 28.3
4 | C[C@@H]1c2ccsc2CCN1C(=O)c1cc(C2CC2)n2nc(-c3ccc(N4CC[C@H](C(N)=O)C4)cc3F)cc2n1 (single isomer, unassigned) [Compound 46, (3S)-1-(4-{7-Cyclopropyl-5-[(4*R)-4-methyl-4,5,6,7-tetrahydro-thieno[3,2-c]pyridine-5-carbonyl]pyrazolo[1,5-a]pyrimidin-2-yl}-3-fluorophenyl)pyrrolidine-3-carboxamide] | 0.007 | 270 | 31.3
5 | C[C@@H]1c2ccccc2CCN1C(=O)c1cc(C2CC2)n2nc(-c3ccc(N4CCC5(COC5)C4)cc3F)cc2n1 [Compound 5, (1R)-2-[7-Cyclopropyl-2-(2-fluoro-4-{2-oxa-6-azaspiro[3.4]octan-6-yl}phenyl)pyrazolo[1,5-a]pyrimidine-5-carbonyl]-1-methyl-1,2,3,4-tetrahydroisoquinoline] | 0.118 | 220.25 | > 25
6 | COCCOc1cc(N2CC[C@H](C(N)=O)C2)nc(F)c1-c1cc2nc(C(=O)N3CCc4ccccc4[C@H]3C)cc(C3CC3)n2n1 [Compound 87, (3S)-1-(5-{7-Cyclopropyl-5-[(1R)-1-methyl-1,2,3,4-tetrahydroisoquinoline-2-carbonyl]-pyrazolo[1,5-a]pyrimidin-2-yl}-6-fluoro-4-(2-methoxyethoxy)pyridin-2-yl)pyrrolidine-3-carboxamide] | 0.215 | 152.28 | 47.4
7 | COc1ccc(-c2cc(C(=O)N3CCc4ccccc4[C@H]3C)nc3cc(-c4ccc(N5CC[C@H](C(N)=O)C5)cc4F)nn23)cc1 [Compound 57, (3S)-1-{3-Fluoro-4-[7-(4-methoxyphenyl)-5-[(1R)-1-methyl-1,2,3,4-tetrahydro-isoquinoline-2-carbonyl]pyrazolo[1,5-a]pyrimidin-2-yl]phenyl}pyrrolidine-3-carboxamide] | 0.023 | 216.34 | > 100
8 | CNC(=O)C1CCN(c2ccc(-c3cc4nc(C(=O)N5CCc6ccccc6[C@H]5C)cc(C5CC5)n4n3)c(F)c2)CC1 [Compound 72, 1-(4-{7-Cyclopropyl-5-[(1R)-1-methyl-1,2,3,4-tetrahydroisoquinoline-2-carbonyl]-pyrazolo[1,5-a]pyrimidin-2-yl}-3-fluorophenyl)-N-methylpiperidine-4-carboxamide] | 0.087 | 252.4 | > 100
9 | C[C@@H]1c2cc(F)ccc2CCN1C(=O)c1cc(C2CC2)n2nc(-c3ccc(N4CC[C@H](C(N)=O)C4)cc3F)cc2n1 (single isomer, unassigned) [Compound 47, (3S)-1-(4-{7-Cyclopropyl-5-[(1*R)-7-fluoro-1-methyl-1,2,3,4-tetrahydroisoquinoline-2-carbonyl]pyrazolo[1,5-a]pyrimidin-2-yl}-3-fluorophenyl)pyrrolidine-3-carboxamide] | 0.009 | 245.69 | 41.5
10 | C[C@@H]1c2ccccc2CCN1C(=O)c1cc(C2CC2)n2nc(-c3ccc(N4CC[C@H](NC(=O)C(F)(F)F)C4)cc3F)cc2n1 [Compound 76, N-[(3S)-1-(4-{7-Cyclopropyl-5-[(1R)-1-methyl-1,2,3,4-tetrahydroisoquinoline-2-carbonyl]pyrazolo[1,5-a]pyrimidin-2-yl}-3-fluorophenyl)pyrrolidin-3-yl]-2,2,2-trifluoroacetamide] | 0.246 | 221.2 | > 100
11 | C[C@@H]1c2ccccc2CCN1C(=O)c1cc(C2CC2)n2nc(-c3cnc(N4CC[C@H](C(=O)NS(C)(=O)=O)C4)cc3F)cc2n1 [Compound 54, (3S)-1-(5-{7-Cyclopropyl-5-[(1R)-1-methyl-1,2,3,4-tetrahydroisoquinoline-2-carbonyl]-pyrazolo[1,5-a]pyrimidin-2-yl}-4-fluoropyridin-2-yl)-N-methanesulfonylpyrrolidine-3-carboxamide] | 0.192 | 254.46 | 77.4
12 | C[C@@H]1c2ccccc2CCN1C(=O)c1cc(C2CC2)n2nc(-c3ccc(N4CC(CC(N)=O)C4)cc3F)cc2n1 [Compound 65, 2-[1-(4-{7-Cyclopropyl-5-[(1R)-1-methyl-1,2,3,4-tetrahydroisoquinoline-2-carbonyl]-pyrazolo[1,5-a]pyrimidin-2-yl}-3-fluorophenyl)azetidin-3-yl]acetamide] | 0.048 | 211.64 | 39.1
